Data: patent US6017911A, “Pyridonecarboxylic acid derivatives and intermediates for the synthesis thereof” (Dainippon Pharmaceutical Co., Ltd., priority 1996, dated 2000)
Converted amounts (≈) assume the structure as drawn. Read-outs that look alike come from different tables or passages of the source.

What was measured:
[1] = tested on: Staphylococcus aureus 50774; assay: In vitro antibacterial activity (MIC), Staphylococcus aureus 50774; format: cell-based; details: Staphylococcus aureus 50774; read-out: Minimum inhibitory concentration (MIC)
[2] = tested on: Pseudomonas aeruginosa No 12; assay: In vitro antibacterial activity (MIC), Pseudomonas aeruginosa No 12; format: cell-based; details: NO12, read-out: Minimum inhibitory concentration (MIC)
[3] = tested on: Staphylococcus aureus MS16405; assay: In vitro antibacterial activity (MIC), Staphylococcus aureus MS16405; format: cell-based
[4] = tested on: Escherichia coli NIHJ JC-2; assay: In vitro antibacterial activity (MIC), Escherichia coli NIHJ JC-2; format: cell-based; details: NIHJJC2, read-out: Minimum inhibitory concentration (MIC)
[5] = tested on: Staphylococcus aureus 50774; assay: Effect on systemic infection in mice; format: in vivo, mice (male Std-ddy strain); details: 168 h; Staphylococcus aureus 50774 i.p. infection; oral, twice (immediately and 6 h after infection); survival 7 days after infection
Procedure: The effects (ED50; mg/kg) on systemic infection in mice were determined as follows: Male Std-ddy strain mice (weighing about 20 g) were infected with each of the pathogenic bacteria shown in Table 2 by administering 5×10^3 viable cells intraperitoneally to each mouse. Then, a suspension of each test compound in 0.4% carboxymethylcellulose was orally administered twice, i.e., immediately after infection and 6 hours after infection. Seven days after infection, the ED50 value was calculated from the survival rate of each mouse group by probit analysis.
As a reference compound, there was used enoxacin [1-ethyl-6-fluoro-1,4-dihydro-4-oxo-7-(1-piperazinyl-1,8-naphthyridine-3-carboxylic acid; hereinafter abbreviated as ENX] that is an excellent antibacterial agent currently on the market.
The test compounds shown in the following Tables 1 and 2 are identified by the respective numbers of the Examples which will be given later.

[6] = Staphylococcus aureus MS16405, read-out: Minimum inhibitory concentration (MIC)
[7] = Staphylococcus aureus, MS16405, read-out: Minimum inhibitory concentration (MIC)

MIC [3, 6] [µg/mL]	Compound	MIC [1] [µg/mL]	MIC [2] [µg/mL]	MIC [4] [µg/mL]	ED50 [5] [mg/kg]	MIC [3, 7] [µg/mL]
1.56 (≈ 3.55 µM)	N[C@H]1CN(c2c(F)cc3c(=O)c(C(=O)O)cn(C4CC4)c3c2OC(F)F)[C@@H]2CCO[C@@H]21 (relative stereo) [Example 14]	0.025 (≈ 0.0569 µM)	1.56 (≈ 3.55 µM)	0.025 (≈ 0.0569 µM)	≤ 0.78	–
–	COc1c(N2C[C@H](N)[C@H]3OCC[C@H]32)c(F)c(N)c2c(=O)c(C(=O)O)cn(C3CC3)c12 (relative stereo) [Example 4]	0.006 (≈ 0.0143 µM)	0.78 (≈ 1.86 µM)	0.025 (≈ 0.0597 µM)	0.246	0.39 (≈ 0.932 µM)
1.56 (≈ 3.74 µM)	CN[C@H]1CN(c2c(F)cc3c(=O)c(C(=O)O)cn(C4CC4)c3c2OC)[C@@H]2CCO[C@H]12 (relative stereo) [Example 6]	0.025 (≈ 0.0599 µM)	1.56 (≈ 3.74 µM)	0.025 (≈ 0.0599 µM)	0.292	–
–	COc1c(N2C[C@H](N)[C@H]3OCC[C@H]32)c(F)cc2c(=O)c(C(=O)O)cn([C@@H]3C[C@@H]3F)c12 (relative stereo) [Example 2, 7-[(1R*,5R*,8S*)-8-amino-2-oxa-6-azabicyclo[3.3.0]oct-6-yl]-6-fluoro-1-[(1R,2S)-2-fluorocyclopropyl]-1,4-dihydro-8-methoxy-4-oxoquinoline-3-carboxylicacid]	0.006 (≈ 0.0142 µM)	0.39 (≈ 0.925 µM)	0.013 (≈ 0.0308 µM)	0.383	0.39 (≈ 0.925 µM)
